Values after ≈ are worked out from the molar mass of the structure shown.
Experiments:
[1] = molecular target: human recombinant TAK1-TAB1 Kinase (TAK1 (1-303) and TAB1 (437-end)) (Homo sapiens (Human), UniProt O43318); test: TAK1 biochemical ADP-Glo kinase assay; details: 10 μM ATP, MBP substrate; read-out: TAK1 Mean IC50 (nM) @ 10 μM ATP
In short: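 Inhibition of human recombinant TAK1-TAB1 kinase was measured with a Promega ADP-Glo luminescence assay in 384-well plates. Compounds in 5% DMSO were pre-incubated 10 min with 2 μl TAK1-TAB1 (7.5 ng/μl) in buffer of Tris pH 7.5, MgCl2, DTT and BSA. MBP substrate and ATP were then added for 1 hour at room temperature. ADP-Glo reagent and kinase detection substrate followed, luminescence was read on an Envision, and IC50 came from non-linear regression.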

[2] = Solubility assay in phosphate buffer; details: phosphate buffer 100 mM, pH 7.4, room temperature, 20-24 h, LC-UV
Procedure: The aqueous solubility of selected example compounds was determined as follows; 6 μL of DMSO stock solution of the selected example was added to 594 μL phosphate buffer (100 mM, pH 7.4). The resulting mixture was equilibrated over night (20-24 h, Alligator Shaker, room temperature). The mixture was then filtered (Millex LH 0.45 μm) and the concentration/solubility was determined by LC-UV quantification.

[3] = phosphate buffer, pH 7.4, aqueous buffer, kinetic from dmso stock, Solubility (μM)

Sequence of human recombinant TAK1-TAB1 Kinase (TAK1 (1-303) and TAB1 (437-end)) (O43318 other isoform, or with tags, fused parts or gaps): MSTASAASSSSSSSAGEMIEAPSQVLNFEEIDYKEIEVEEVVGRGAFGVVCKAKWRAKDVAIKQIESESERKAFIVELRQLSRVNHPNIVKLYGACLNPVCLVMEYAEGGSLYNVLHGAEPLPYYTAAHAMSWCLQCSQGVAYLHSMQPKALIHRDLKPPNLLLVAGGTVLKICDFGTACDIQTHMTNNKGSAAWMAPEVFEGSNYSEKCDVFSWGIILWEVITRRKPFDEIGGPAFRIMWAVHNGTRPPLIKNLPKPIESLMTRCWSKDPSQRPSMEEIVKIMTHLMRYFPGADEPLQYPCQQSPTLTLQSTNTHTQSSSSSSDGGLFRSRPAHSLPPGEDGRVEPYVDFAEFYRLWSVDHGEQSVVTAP

| SMILES | IC50 [1] | solubility [2, 3] | solubility [2] |
| --- | --- | --- | --- |
| O=C1NCCCCCn2c(nc3cc(C(=O)N4CCNCC4)ccc32)NC(=O)c2cccc1c2 [Example 16, 1^5-(piperazine-1-carbonyl)-1^1H-2,6-diaza-1(2,1)-benzo[d]imidazola-4(1,3)-benzenacycloundecaphane-3,5-dione] | 3 nM | 78.8 µM (≈ 36.3 µg/mL) |  |
| O=C1NCCCCCn2c(nc3cccc(C(=O)N4CCNCC4)c32)NC(=O)c2cccc1c2 [Example 17, 1^7-(piperazine-1-carbonyl)-1^1H-2,6-diaza-1(2,1)-benzo[d]imidazola-4(1,3)-benzenacycloundecaphane-3,5-dione] | 4 nM | 93.6 µM (≈ 43.1 µg/mL) |  |
| O=C1/N=C2\Nc3cccc(C(=O)N4CCN(C5COC5)CC4)c3N2CCCCCNC(=O)c2cccc1c2 [Example 19, (E)-1^7-(4-(oxetan-3-yl)piperazine-1-carbonyl)-1^2,1^3-dihydro-1^1H-2,6-diaza-1(2,1)-benzo[d]imidazola-4(1,3)-benzenacycloundecaphane-3,5-dione] | 7 nM | 8.5 µM (≈ 4.39 µg/mL) |  |
| CN(C)[C@H]1CCN(C(=O)c2cccc3c2N2CCCCCNC(=O)c4cccc(c4)C(=O)/N=C/2N3)C1 [Example 21, (S,E)-1^7-(3-(dimethylamino)pyrrolidine-1-carbonyl)-1^2,1^3-dihydro-1^1H-2,6-diaza-1(2,1)-benzo[d]imidazola-4(1,3)-benzenacycloundecaphane-3,5-dione] | 7 nM | 85.1 µM (≈ 41.6 µg/mL) |  |
| CN(C)[C@@H]1CCN(C(=O)c2cccc3c2N2CCCCCNC(=O)c4cccc(c4)C(=O)/N=C/2N3)C1 [Example 23, (R,E)-1^7-(3-(dimethylamino)pyrrolidine-1-carbonyl)-1^2,1^3-dihydro-1^1H-2,6-diaza-1(2,1)-benzo[d]imidazola-4(1,3)-benzenacycloundecaphane-3,5-dione] | 8 nM | 83.3 µM (≈ 40.7 µg/mL) |  |
| C[C@@H]1CCCCNC(=O)c2cccc(c2)C(=O)/N=C2\Nc3cccc(C(=O)N4C[C@H]5C[C@@H]4CN5C)c3N21 [Example 29, (R, E)-11-methyl-1^7-((1R,4R)-5-methyl-2,5-diazabicyclo[2.2.1]heptane-2-carbonyl)-1^2,1^3-dihydro-1^1H-2,6-diaza-1(2,1)-benzo[d]imidazola-4(1,3)-benzenacycloundecaphane-3,5-dione] | 6 nM | 95 µM (≈ 47.6 µg/mL) |  |
| C[C@H]1CCCCNC(=O)c2cccc(c2)C(=O)/N=C2\Nc3cccc(C(=O)N4C[C@H]5C[C@@H]4CN5C)c3N21 [Example 30, (S, E)-11-methyl-1^7-((1R,4R)-5-methyl-2,5-diazabicyclo[2.2.1]heptane-2-carbonyl)-1^2,1^3-dihydro-1^1H-2,6-diaza-1(2,1)-benzo[d]imidazola-4(1,3)-benzenacycloundecaphane-3,5-dione] | 8 nM | 95 µM (≈ 47.6 µg/mL) |  |
| CC1CCCCNC(=O)c2cccc(c2)C(=O)/N=C2\Nc3cccc(C(=O)N4CCC4)c3N21 (centres unmarked) [Example 43, (E)-1^7-(azetidine-1-carbonyl)-11-methyl-1^2,1^3-dihydro-1^1H-2,6-diaza-1(2,1)-benzo[d]imidazola-4(1,3)-benzenacycloundecaphane-3,5-dione] | 4 nM | 16 µM (≈ 7.13 µg/mL) |  |
| COC1(C)CN(C(=O)c2cccc3c2N2/C(=N/C(=O)c4cccc(c4)C(=O)NCCCCC2C)N3)C1 (centres unmarked) [Example 49, (E)-1^7-(3-methoxy-3-methylazetidine-1-carbonyl)-11-methyl-1^2,1^3-dihydro-1^1H-2,6-diaza-1(2,1)-benzo[d]imidazola-4(1,3)-benzenacycloundecaphane-3,5-dione] | 3 nM | 89 µM (≈ 43.6 µg/mL) |  |

More lines, in order of falling IC50 [1], values ahead:

| IC50 [1] | solubility [2, 3] | solubility [2] | SMILES |
| --- | --- | --- | --- |
| 223 nM | 26 µM (≈ 11.3 µg/mL) |  | C[C@H]1CCCCn2c(nc3cccc(C(=O)N(C)C)c32)NC(=O)c2cccc(c2)C(=O)N1 [Example 44, (S,E)-N,N,7-trimethyl-3,5-dioxo-1^2,1^3-dihydro-1^1H-2,6-diaza-1(2,1)-benzo[d]imidazola-4(1,3)-benzenacycloundecaphane-1^7-carboxamide] |
| 19 nM | 35 µM (≈ 17.1 µg/mL) |  | C[C@@H]1CN(C)CCN1C(=O)c1cccc2c1N1CCCCCNC(=O)c3cccc(c3)C(=O)/N=C/1N2 [Example 20, (R,E)-1^7-(2,4-dimethylpiperazine-1-carbonyl)-1^2,1^3-dihydro-1^1H-2,6-diaza-1(2,1)-benzo[d]imidazola-4(1,3)-benzenacycloundecaphane-3,5-dione] |
| 9 nM | 88.5 µM (≈ 43.1 µg/mL) |  | CN1C[C@@H]2C[C@H]1CN2C(=O)c1cccc2c1N1CCCCCNC(=O)c3cccc(c3)C(=O)/N=C/1N2 [Example 22, (E)-1^7-((1S,4S)-5-methyl-2,5-diazabicyclo[2.2.1]heptane-2-carbonyl)-1^2,1^3-dihydro-1^1H-2,6-diaza-1(2,1)-benzo[d]imidazola-4(1,3)-benzenacycloundecaphane-3,5-dione] |
| 5 nM | 90.1 µM (≈ 42.8 µg/mL) |  | CC1CCCCNC(=O)c2cccc(c2)C(=O)Nc2nc3cccc(C(=O)N4CCNCC4)c3n21 (centres unmarked) [Example 15, 11-methyl-1^7-(piperazine-1-carbonyl)-1^1H-2,6-diaza-1(2,1)-benzo[d]imidazola-4(1,3)-benzenacycloundecaphane-3,5-dione] |
| 5 nM | 78.7 µM (≈ 38.5 µg/mL) |  | CN1CCCN(C(=O)c2cccc3c2N2CCCCCNC(=O)c4cccc(c4)C(=O)/N=C/2N3)CC1 [Example 26, (E)-1^7-(4-methyl-1,4-diazepane-1-carbonyl)-1^2,1^3-dihydro-1^1H-2,6-diaza-1(2,1)-benzo[d]imidazola-4(1,3)-benzenacycloundecaphane-3,5-dione] |
| 4 nM | 26.2 µM (≈ 12.8 µg/mL) |  | C[C@H]1CN(C)CCN1C(=O)c1cccc2c1N1CCCCCNC(=O)c3cccc(c3)C(=O)/N=C/1N2 [Example 24, (S,E)-1^7-(2,4-dimethylpiperazine-1-carbonyl)-1^2,1^3-dihydro-1^1H-2,6-diaza-1(2,1)-benzo[d]imidazola-4(1,3)-benzenacycloundecaphane-3,5-dione] |
| 4 nM | 74 µM (≈ 31 µg/mL) |  | CC(=O)Nc1cccc2c1N1/C(=N/C(=O)c3cccc(c3)C(=O)NCCCCC1C)N2 (centres unmarked) [Example 45, (E)-N-(11-methyl-3,5-dioxo-1^2,1^3-dihydro-1^1H-2,6-diaza-1(2,1)-benzo[d]imidazola-4(1,3)-benzenacycloundecaphane-1^7-yl)acetamide] |
| 2 nM | 82 µM (≈ 39.9 µg/mL) |  | CN1C[C@H]2C[C@@H]1CN2C(=O)c1cccc2c1N1CCCCCNC(=O)c3cccc(c3)C(=O)/N=C/1N2 [Example 25, (E)-1^7-((1R,4R)-5-methyl-2,5-diazabicyclo[2.2.1]heptane-2-carbonyl)-1^2,1^3-dihydro-1^1H-2,6-diaza-1(2,1)-benzo[d]imidazola-4(1,3)-benzenacycloundecaphane-3,5-dione] |
| 1 nM | 42 µM (≈ 19.4 µg/mL) |  | CC(C)N(C)C(=O)c1cccc2c1N1/C(=N/C(=O)c3cccc(c3)C(=O)NCCCCC1C)N2 (centres unmarked) [Example 47, (E)-N-isopropyl-N,11-dimethyl-3,5-dioxo-1^2,1^3-dihydro-1^1H-2,6-diaza-1(2,1)-benzo[d]imidazola-4(1,3)-benzenacycloundecaphane-1^7-carboxamide] |
| 1 nM |  | 24.0 µM (≈ 11.1 µg/mL) | CC(C)N(C)C(=O)c1cccc2c1N1/C(=N/C(=O)c3cccc(c3)C(=O)NCCCCC1C)N2 (centres unmarked) [Example 48, (E)-N-isopropyl-N,11-dimethyl-3,5-dioxo-1^2,1^3-dihydro-1^1H-2,6-diaza-1(2,1)-benzo[d]imidazola-4(1,3)-benzenacycloundecaphane-1^7-carboxamide] |

From US20240279233A1, “MACROCYCLIC TAK1 INHIBITORS” (Aqilion AB, priority 2021, published 2024)
